The NIST ThermoML archive (doi:10.1016/j.jct.2016.03.003)

Test: mn = molality of the nth substance listed, in mol/kg
Conditions: 101.3 kPa, Liquid, Vibrating tube method

C[C@H](O)C(=O)[O-].C[C@H](O)C(=O)[O-].C[C@H](O)C(=O)[O-].[Al+3] [aluminium L-lactate] + O
Conditions | mass density [kg/m3]
278.15 K, m1 = 0.0016 | 1000.31
278.15 K, m1 = 0.0033 | 1000.54
278.15 K, m1 = 0.0065 | 1000.95
278.15 K, m1 = 0.016 | 1002.1
278.15 K, m1 = 0.0281 | 1003.54
278.15 K, m1 = 0.0521 | 1006.26
278.15 K, m1 = 0.0995 | 1011.5
278.15 K, m1 = 0.1996 | 1022.22
278.15 K, m1 = 0.3045 | 1032.98
278.15 K, m1 = 0.4021 | 1042.51
278.15 K, m1 = 0.5059 | 1052.17
278.15 K, m1 = 0.5991 | 1060.59
278.15 K, m1 = 0.7147 | 1070.67
283.15 K, m1 = 0.0016 | 1000.07
283.15 K, m1 = 0.0033 | 1000.29
283.15 K, m1 = 0.0065 | 1000.7
283.15 K, m1 = 0.016 | 1001.82
283.15 K, m1 = 0.0281 | 1003.24
283.15 K, m1 = 0.0521 | 1005.92
283.15 K, m1 = 0.0995 | 1011.1
283.15 K, m1 = 0.1996 | 1021.72
283.15 K, m1 = 0.3045 | 1032.35
283.15 K, m1 = 0.4021 | 1041.79
283.15 K, m1 = 0.5059 | 1051.34
283.15 K, m1 = 0.5991 | 1059.68
283.15 K, m1 = 0.7147 | 1069.65
288.15 K, m1 = 0.0016 | 999.46
288.15 K, m1 = 0.0033 | 999.69
288.15 K, m1 = 0.0065 | 1000.09
288.15 K, m1 = 0.016 | 1001.21
288.15 K, m1 = 0.0281 | 1002.6
288.15 K, m1 = 0.0521 | 1005.25
288.15 K, m1 = 0.0995 | 1010.37
288.15 K, m1 = 0.1996 | 1020.89
288.15 K, m1 = 0.3045 | 1031.43
288.15 K, m1 = 0.4021 | 1040.77
288.15 K, m1 = 0.5059 | 1050.24
288.15 K, m1 = 0.5991 | 1058.5
288.15 K, m1 = 0.7147 | 1068.38
293.15 K, m1 = 0.0016 | 998.56
293.15 K, m1 = 0.0033 | 998.78
293.15 K, m1 = 0.0065 | 999.18
293.15 K, m1 = 0.016 | 1000.27
293.15 K, m1 = 0.0281 | 1001.67
293.15 K, m1 = 0.0521 | 1004.3
293.15 K, m1 = 0.0995 | 1009.39
293.15 K, m1 = 0.1996 | 1019.81
293.15 K, m1 = 0.3045 | 1030.26
293.15 K, m1 = 0.4021 | 1039.52
293.15 K, m1 = 0.5059 | 1048.92
293.15 K, m1 = 0.5991 | 1057.11
293.15 K, m1 = 0.7147 | 1066.89
298.15 K, m1 = 0.0016 | 997.37
298.15 K, m1 = 0.0033 | 997.6
298.15 K, m1 = 0.0065 | 997.99
298.15 K, m1 = 0.016 | 999.09
298.15 K, m1 = 0.0281 | 1000.46
298.15 K, m1 = 0.0521 | 1003.09
298.15 K, m1 = 0.0995 | 1008.13
298.15 K, m1 = 0.1996 | 1018.48
298.15 K, m1 = 0.3045 | 1028.85
298.15 K, m1 = 0.4021 | 1038.07
298.15 K, m1 = 0.5059 | 1047.37
298.15 K, m1 = 0.5991 | 1055.51
298.15 K, m1 = 0.7147 | 1065.25
303.15 K, m1 = 0.0016 | 996
303.15 K, m1 = 0.0033 | 996.22
303.15 K, m1 = 0.0065 | 996.61
303.15 K, m1 = 0.016 | 997.67
303.15 K, m1 = 0.0281 | 999.04
303.15 K, m1 = 0.0521 | 1001.64
303.15 K, m1 = 0.0995 | 1006.64
303.15 K, m1 = 0.1996 | 1016.92
303.15 K, m1 = 0.3045 | 1027.23
303.15 K, m1 = 0.4021 | 1036.37
303.15 K, m1 = 0.5059 | 1045.62
303.15 K, m1 = 0.5991 | 1053.7
303.15 K, m1 = 0.7147 | 1063.36
308.15 K, m1 = 0.0016 | 994.37
308.15 K, m1 = 0.0033 | 994.59
308.15 K, m1 = 0.0065 | 994.98
308.15 K, m1 = 0.016 | 996.04
308.15 K, m1 = 0.0281 | 997.4
308.15 K, m1 = 0.0521 | 999.99
308.15 K, m1 = 0.0995 | 1004.96
308.15 K, m1 = 0.1996 | 1015.17
308.15 K, m1 = 0.3045 | 1025.41
308.15 K, m1 = 0.4021 | 1034.51
308.15 K, m1 = 0.5059 | 1043.7
308.15 K, m1 = 0.5991 | 1051.73
308.15 K, m1 = 0.7147 | 1061.35
313.15 K, m1 = 0.0016 | 992.55
313.15 K, m1 = 0.0033 | 992.76
313.15 K, m1 = 0.0065 | 993.14
313.15 K, m1 = 0.016 | 994.21
313.15 K, m1 = 0.0281 | 995.56
313.15 K, m1 = 0.0521 | 998.12
313.15 K, m1 = 0.0995 | 1003.06
313.15 K, m1 = 0.1996 | 1013.23
313.15 K, m1 = 0.3045 | 1023.41
313.15 K, m1 = 0.4021 | 1032.44
313.15 K, m1 = 0.5059 | 1041.59
313.15 K, m1 = 0.5991 | 1049.59
313.15 K, m1 = 0.7147 | 1059.14
318.15 K, m1 = 0.0016 | 990.54
318.15 K, m1 = 0.0033 | 990.75
318.15 K, m1 = 0.0065 | 991.13
318.15 K, m1 = 0.016 | 992.2
318.15 K, m1 = 0.0281 | 993.53
318.15 K, m1 = 0.0521 | 996.09
318.15 K, m1 = 0.0995 | 1001
318.15 K, m1 = 0.1996 | 1011.1
318.15 K, m1 = 0.3045 | 1021.23
318.15 K, m1 = 0.4021 | 1030.23
318.15 K, m1 = 0.5059 | 1039.33
318.15 K, m1 = 0.5991 | 1047.3
318.15 K, m1 = 0.7147 | 1056.79
323.15 K, m1 = 0.0016 | 988.37
323.15 K, m1 = 0.0033 | 988.56
323.15 K, m1 = 0.0065 | 988.95
323.15 K, m1 = 0.016 | 990
323.15 K, m1 = 0.0281 | 991.34
323.15 K, m1 = 0.0521 | 993.87
323.15 K, m1 = 0.0995 | 998.76
323.15 K, m1 = 0.1996 | 1008.81
323.15 K, m1 = 0.3045 | 1018.9
323.15 K, m1 = 0.4021 | 1027.86
323.15 K, m1 = 0.5059 | 1036.92
323.15 K, m1 = 0.5991 | 1044.84
323.15 K, m1 = 0.7147 | 1054.31
328.15 K, m1 = 0.0016 | 986.02
328.15 K, m1 = 0.0033 | 986.21
328.15 K, m1 = 0.0065 | 986.59
328.15 K, m1 = 0.016 | 987.65
328.15 K, m1 = 0.0281 | 988.97
328.15 K, m1 = 0.0521 | 991.49
328.15 K, m1 = 0.0995 | 996.36
328.15 K, m1 = 0.1996 | 1006.37
328.15 K, m1 = 0.3045 | 1016.42
328.15 K, m1 = 0.4021 | 1025.32
328.15 K, m1 = 0.5059 | 1034.36
328.15 K, m1 = 0.5991 | 1042.24
328.15 K, m1 = 0.7147 | 1051.67
333.15 K, m1 = 0.0016 | 983.53
333.15 K, m1 = 0.0033 | 983.72
333.15 K, m1 = 0.0065 | 984.09
333.15 K, m1 = 0.016 | 985.14
333.15 K, m1 = 0.0281 | 986.48
333.15 K, m1 = 0.0521 | 988.97
333.15 K, m1 = 0.0995 | 993.82
333.15 K, m1 = 0.1996 | 1003.79
333.15 K, m1 = 0.3045 | 1013.8
333.15 K, m1 = 0.4021 | 1022.68
333.15 K, m1 = 0.5059 | 1031.67
333.15 K, m1 = 0.5991 | 1039.53
333.15 K, m1 = 0.7147 | 1048.93
338.15 K, m1 = 0.0016 | 980.88
338.15 K, m1 = 0.0033 | 981.06
338.15 K, m1 = 0.0065 | 981.45
338.15 K, m1 = 0.016 | 982.49
338.15 K, m1 = 0.0281 | 983.81
338.15 K, m1 = 0.0521 | 986.3
338.15 K, m1 = 0.0995 | 991.13
338.15 K, m1 = 0.1996 | 1001.06
338.15 K, m1 = 0.3045 | 1011.04
338.15 K, m1 = 0.4021 | 1019.88
338.15 K, m1 = 0.5059 | 1028.85
338.15 K, m1 = 0.5991 | 1036.68
338.15 K, m1 = 0.7147 | 1046.04
343.15 K, m1 = 0.0016 | 978.11
343.15 K, m1 = 0.0033 | 978.27
343.15 K, m1 = 0.0065 | 978.67
343.15 K, m1 = 0.016 | 979.71
343.15 K, m1 = 0.0281 | 981.02
343.15 K, m1 = 0.0521 | 983.51
343.15 K, m1 = 0.0995 | 988.33
343.15 K, m1 = 0.1996 | 998.2
343.15 K, m1 = 0.3045 | 1008.14
343.15 K, m1 = 0.4021 | 1017.05
343.15 K, m1 = 0.5059 | 1025.9
343.15 K, m1 = 0.5991 | 1033.73
343.15 K, m1 = 0.7147 | 1043.05
